Test results reported in the NIST ThermoML archive (doi:10.1016/j.fluid.2016.09.021).

Settings: Liquid, Vibrating tube method

CCCCCCC [heptane]
mass density [kg/m3]
Settings	393 K	413 K	433 K
2100 kPa	596.5	574.1	550.1
3000 kPa	598.7	577	553.9
4000 kPa	600.8	579.6	557.5
5000 kPa	602.8	582.1	560.7
10000 kPa	612.2	593.6	574.6
20000 kPa	627.8	611.9	595.4
30000 kPa	640.2	626	611.5
40000 kPa	650.8	637.6	624.3
49900 kPa	659.9	647.8	635.2
59900 kPa	668.3	656.9	–
69900 kPa	675.9	664.7	–
79900 kPa	682.9	672.4	–
89900 kPa	689.5	679.3	–
99900 kPa	695.7	685.8	–
109900 kPa	701.4	692.2	–
119900 kPa	706.8	698	–
129900 kPa	712.1	703.6	–
134900 kPa	714.7	706.2	–
137400 kPa	715.8	707.4	–
